Results as given in PMC6934184, “Selective DNA-PKcs inhibition extends the therapeutic index of localized radiotherapy and chemotherapy” (The Journal of Clinical Investigation, 2019).

Target: T1, DMPK (Homo sapiens, UniProt Q09013)
T1 construct: purchased Thermo Fisher Scientific (Life Technologies) SelectScreen
Experiment: SelectScreen LanthaScreen
Type: binding
Conditions: read-out: % displacement
Procedure, shortened: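 SelectScreen broad panel; activity (Z'LYTE, Adapta) plus binding formats. ATP: Km app for CSF1R Z'LYTE; 10 for CAMK1 Adapta. Readout = % per kinase.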

T1 sequence (Q09013 whole entry): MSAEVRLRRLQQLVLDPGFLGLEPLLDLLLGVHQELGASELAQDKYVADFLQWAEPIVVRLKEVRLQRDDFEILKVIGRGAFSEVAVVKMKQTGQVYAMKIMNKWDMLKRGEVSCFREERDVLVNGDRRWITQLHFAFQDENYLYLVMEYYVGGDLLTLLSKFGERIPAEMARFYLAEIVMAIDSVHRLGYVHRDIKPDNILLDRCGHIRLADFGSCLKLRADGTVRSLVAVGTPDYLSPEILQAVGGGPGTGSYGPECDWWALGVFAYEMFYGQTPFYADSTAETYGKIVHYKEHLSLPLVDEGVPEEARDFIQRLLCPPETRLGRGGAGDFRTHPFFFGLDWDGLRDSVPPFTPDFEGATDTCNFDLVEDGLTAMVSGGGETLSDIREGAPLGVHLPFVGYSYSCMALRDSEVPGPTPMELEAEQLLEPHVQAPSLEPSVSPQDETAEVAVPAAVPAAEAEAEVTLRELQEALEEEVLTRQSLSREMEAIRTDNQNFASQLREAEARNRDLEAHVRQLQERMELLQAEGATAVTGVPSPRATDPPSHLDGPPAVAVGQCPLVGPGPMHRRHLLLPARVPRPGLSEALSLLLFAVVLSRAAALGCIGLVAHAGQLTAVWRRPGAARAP

CN(C(=O)CN1CCOCC1)c1ccc2sc3c(-c4cccc5c(=O)cc(N6CC7CCC(C6)O7)oc45)cccc3c2c1 [NU5455]
inhibition at 1 µM: -1.5%
